According to patent publication US20240228535A1 (priority 2022, published 2024):

These molecules were tested against SARS2 coronavirus 3CL protease (Severe acute respiratory syndrome coronavirus 2, UniProt P0DTD1) (assay: biochemical). Conditions: 5 nM enzyme, 30 min pre-incubation with compound, 15 μM peptide substrate, 4 h at room temperature; read-out: FRET Potency (nM); IC50 values in the SARS2 3CLPro FRET assay.

SMILES	IC50
O=C(NC1CC1)C(=O)[C@H](C[C@@H]1CCNC1=O)NC(=O)c1cc(Cl)ccc1NC(=O)[C@H]1CC1(F)F [Example 168]	12 nM
CNC(=O)C(=O)[C@H](C[C@@H]1C[C@@H](C)NC1=O)NC(=O)c1cc(C(F)(F)F)ccc1NC(=O)OC1CC1 [Example 169, cyclopropyl N-[2-[(1S)-3-(methylamino)-1-[[(3S,5R)-5-methyl-2-oxo-pyrrolidin-3-yl]methyl]-2,3-dioxo-propyl]carbamoyl]-4-(trifluoromethyl)phenyl] carbamate]	75.3 nM
CNC(=O)C(=O)[C@H](C[C@@H]1C[C@@H](C)NC1=O)NC(=O)c1cc(Cl)c(Cl)cc1NC(=O)OC1CC1 [Example 170, cyclopropyl N-[4,5-dichloro-2-[[(1S)-3-(methylamino)-1-[[(3S,5R)-5-methyl-2-oxo-pyrrolidin-3-yl]methyl]-2,3-dioxo-propyl]carbamoyl]phenyl] carbamate]	10.5 nM
CNC(=O)C(=O)[C@H](C[C@@H]1C[C@@H](C)NC1=O)NC(=O)c1cc(Cl)ccc1NC(=O)OC1CC1(F)F (stereo partly drawn) [Example 171, (2,2-difluorocyclopropyl) N-[4-chloro-2-[(1S)-3-(methylamino)-1-[[(3S,5R)-5-methyl-2-oxo-pyrrolidin-3-yl]methyl]-2,3-dioxo-propyl]carbamoyl]phenyl] carbamate]	3.2 nM
CNC(=O)C(=O)[C@H](C[C@@H]1C[C@@H](C)NC1=O)NC(=O)c1cc(Cl)ccc1NC(=O)OC1CC1(F)F (stereo partly drawn) [Example 172, (2,2-difluorocyclopropyl) N-[4-chloro-2-[(1S)-3-(methylamino)-1-[[(3S,5R)-5-methyl-2-oxo-pyrrolidin-3-yl]methyl]-2,3-dioxo-propyl]carbamoyl]phenyl] carbamate]	3.7 nM
CNC(=O)C(=O)[C@H](C[C@@H]1CCNC1=O)NC(=O)c1cc(Cl)ccc1NC(=O)OC1CC(F)(F)C1 [Example 173]	6.7 nM
CNC(=O)C(=O)[C@H](C[C@@H]1CCNC1=O)NC(=O)c1cc(Cl)ccc1NC(=O)OCc1ccccc1 [Example 174]	6.5 nM
CNC(=O)C(=O)[C@H](C[C@@H]1CCNC1=O)NC(=O)c1cc(Cl)ccc1NC(=O)C1CC1C(F)(F)F (some centres unmarked) [Example 175]	2.8 nM
CNC(=O)C(=O)[C@H](C[C@@H]1CCNC1=O)NC(=O)c1cc(Cl)ccc1NC(=O)C1CC1C(F)(F)F (stereo partly drawn) [Example 176, 5-chloro-N-[(1S)-3-(methylamino)-2,3-dioxo-1-[[(3S)-2-oxopyrrolidin-3-yl]methyl]propyl]-2-[[2-(trifluoromethyl)cyclopropane-carbonyl]amino]benzamide]	2.5 nM
C[C@@H]1C[C@@H](C[C@H](NC(=O)c2cc(Cl)ccc2NC(=O)C(F)(F)F)C(=O)C(=O)NC2CC2)C(=O)N1 [Example 177, 5-chloro-N-[(1S)-3-(cyclopropylamino)-1-[[(3S,5R)-5-methyl-2-oxo-pyrrolidin-3-yl]methyl]-2,3-dioxo-propyl]-2-[(2,2,2-trifluoroacetyl)amino] benzamide]	10.9 nM
CNC(=O)C(=O)[C@H](C[C@@H]1C[C@@H](C)NC1=O)NC(=O)c1cc(Cl)ccc1NC(=O)CCC(F)(F)F [Example 178, 5-chloro-N-[(1S)-3-(methylamino)-1-[[(3S,5R)-5-methyl-2-oxo-pyrrolidin-3-yl]methyl]-2,3-dioxo-propyl]-2-(4,4,4-trifluorobutanoylamino) benzamide]	7 nM
CNC(=O)C(=O)[C@H](C[C@@H]1CCNC1=O)NC(=O)c1cc(Cl)ccc1NC(=O)C(C)c1cscn1 (stereo partly drawn) [Example 179, 5-chloro-N-[(1S)-3-(methylamino)-2,3-dioxo-1-[[(3S)-2-oxopyrrolidin-3-yl]methyl]propyl]-2-(2-thiazol-4-ylpropanoylamino)benzamide]	2.5 nM
CNC(=O)C(=O)[C@H](C[C@@H]1CCNC1=O)NC(=O)c1cc(Cl)ccc1NC(=O)OC(C)C(F)(F)F (some centres unmarked) [Example 180]	4.5 nM
CNC(=O)C(=O)[C@H](C[C@@H]1C[C@@H](C)NC1=O)NC(=O)c1cc(Cl)ccc1NC(=O)OCC(F)(F)F [Example 181, 2,2,2-trifluoroethyl N-[4-chloro-2-[[(1S)-3-(methylamino)-1-[[(3S,5R)-5-methyl-2-oxo-pyrrolidin-3-yl]methyl]-2,3-dioxo-propyl]carbamoyl]phenyl] carbamate]	7.2 nM
CNC(=O)C(=O)[C@H](C[C@@H]1C[C@@H](C)NC1=O)NC(=O)c1cc(Cl)ccc1NC(=O)[C@@H]1CN(C)C(=O)O1 [Example 182, (5S)-N-[4-chloro-2-[[(1S)-3-(methylamino)-1-[[(3S,5R)-5-methyl-2-oxo-pyrrolidin-3-yl]methyl]-2,3-dioxo-propyl]carbamoyl]phenyl]-3-methyl-2-oxo-oxazolidine-5-carboxamide]	6.7 nM
CNC(=O)C(=O)[C@H](C[C@@H]1C[C@@H](C)NC1=O)NC(=O)c1cc(Cl)ccc1NC(=O)c1cncc(C#N)c1 [Example 183]	10.1 nM
CNC(=O)C(=O)[C@H](C[C@@H]1C[C@@H](C)NC1=O)NC(=O)c1cc(Cl)ccc1NC(=O)C1CCCC1(F)F (stereo partly drawn) [Example 184, 5-chloro-2-[(2,2-difluorocyclopentanecarbonyl)amino]-N-[(1S)-3-(methylamino)-1-[[(3S,5R)-5-methyl-2-oxo-pyrrolidin-3-yl]methyl]-2,3-dioxo-propyl]benzamide]	13.5 nM
CNC(=O)C(=O)[C@H](C[C@@H]1C[C@@H](C)NC1=O)NC(=O)c1cc(Cl)ccc1NC(=O)C1CCCC1(F)F (stereo partly drawn) [Example 185, 5-chloro-2-[(2,2-difluorocyclopentanecarbonyl)amino]-N-[(1S)-3-(methylamino)-1-[[(3S,5R)-5-methyl-2-oxo-pyrrolidin-3-yl]methyl]-2,3-dioxo-propyl]benzamide]	9 nM
CNC(=O)C(=O)[C@H](C[C@@H]1C[C@@H](C)NC1=O)NC(=O)c1cc(Cl)ccc1NC(=O)OCC1CC1(F)F (stereo partly drawn) [Example 186, (2,2-difluorocyclopropyl)methyl N-[4-chloro-2-[[(1S)-3-(methylamino)-1-[[(3S,5R)-5-methyl-2-oxo-pyrrolidin-3-yl]methyl]-2,3-dioxo-propyl]carbamoyl]phenyl] carbamate]	2.5 nM
CNC(=O)C(=O)[C@H](C[C@@H]1C[C@@H](C)NC1=O)NC(=O)c1cc(Cl)ccc1NC(=O)OCC1CC1(F)F (stereo partly drawn) [Example 187, (2,2-difluorocyclopropyl)methyl N-[4-chloro-2-[(1S)-3-(methylamino)-1-[[(3S,5R)-5-methyl-2-oxo-pyrrolidin-3-yl]methyl]-2,3-dioxo-propyl]carbamoyl]phenyl] carbamate]	2.5 nM
CNC(=O)C(=O)[C@H](C[C@@H]1C[C@@H](C)NC1=O)NC(=O)c1cc(Cl)ccc1NC(=O)OC1CC(F)(F)C1 [Example 188, (3,3-difluorocyclobutyl) N-[4-chloro-2-[(1S)-3-(methylamino)-1-[[(3S,5R)-5-methyl-2-oxo-pyrrolidin-3-yl]methyl]-2,3-dioxo-propyl]carbamoyl]phenyl] carbamate]	7.2 nM
CNC(=O)C(=O)[C@H](C[C@@H]1C[C@@H](C)NC1=O)NC(=O)c1cc(Cl)ccc1NC(=O)C1CC1C(F)(F)F (stereo partly drawn) [Example 189, 5-chloro-N-[(1S)-3-(methylamino)-1-[[(3S,5R)-5-methyl-2-oxo-pyrrolidin-3-yl]methyl]-2,3-dioxo-propyl]-2-[[2-(trifluoromethyl)cyclopropane-carbonyl]amino]benzamide]	3.5 nM
CNC(=O)C(=O)[C@H](C[C@@H]1C[C@@H](C)NC1=O)NC(=O)c1cc(Cl)ccc1NC(=O)C1CC1C(F)(F)F (stereo partly drawn) [Example 190, 5-chloro-N-[(1S)-3-(methylamino)-1-[[(3S,5R)-5-methyl-2-oxo-pyrrolidin-3-yl]methyl]-2,3-dioxo-propyl]-2-[[2-(trifluoromethyl)cyclopropane-carbonyl]amino]benzamide]	3.1 nM
O=C(Nc1ccc(Cl)cc1C(=O)N[C@@H](C[C@@H]1CCNC1=O)C(=O)C(=O)NC1CC1)OCC(F)(F)F [Example 191, 2,2,2-trifluoroethyl N-[4-chloro-2-[[(1S)-3-(cyclopropylamino)-2,3-dioxo-1-[[(3S)-2-oxopyrrolidin-3-yl]methyl]propyl]carbamoyl]phenyl]carbamate]	16.1 nM
C[C@@H]1C[C@@H](C[C@H](NC(=O)c2cc(Cl)ccc2NC(=O)C2CCOCC2)C(=O)C(=O)NC2CC2)C(=O)N1 [Example 192, N-[4-chloro-2-[[(1S)-3-(cyclopropylamino)-1-[[(3S,5R)-5-methyl-2-oxo-pyrrolidin-3-yl]methyl]-2,3-dioxo-propyl]carbamoyl]phenyl]tetra-hydropyran-4-carboxamide]	10.3 nM
C[C@@H]1C[C@@H](C[C@H](NC(=O)c2cc(Cl)ccc2NC(=O)[C@@H]2CNC(=O)O2)C(=O)C(=O)NC2CC2)C(=O)N1 [Example 193, (5S)-N-[4-chloro-2-[[(1S)-3-(cyclopropylamino)-1-[[(3S,5R)-5-methyl-2-oxo-pyrrolidin-3-yl]methyl]-2,3-dioxo-propyl]carbamoyl]phenyl]-2-oxo-oxazolidine-5-carboxamide]	5.2 nM
C[C@@H]1C[C@@H](C[C@H](NC(=O)c2cc(Cl)ccc2NC(=O)N2CCOCC2)C(=O)C(=O)NC2CC2)C(=O)N1 [Example 194, N-[4-chloro-2-[[(1S)-3-(cyclopropylamino)-1-[[(3S,5R)-5-methyl-2-oxo-pyrrolidin-3-yl]methyl]-2,3-dioxo-propyl]carbamoyl]phenyl] morpholine-4-carboxamide]	6.8 nM
CNC(=O)C(=O)[C@H](C[C@@H]1C[C@@H](C)NC1=O)NC(=O)c1cc(Cl)ccc1NC(=O)C(C)c1cscn1 (stereo partly drawn) [Example 195, 5-chloro-N-[(1S)-3-(methylamino)-1-[[(3S,5R)-5-methyl-2-oxo-pyrrolidin-3-yl]methyl]-2,3-dioxo-propyl]-2-(2-thiazol-4-ylpropanoylamino)benzamide]	3.1 nM
CNC(=O)C(=O)[C@H](C[C@@H]1CCNC1=O)NC(=O)c1cc(F)ccc1NC(=O)c1ccnc(C(F)(F)F)c1 [Example 196, N-[4-fluoro-2-[[(1S)-3-(methylamino)-2,3-dioxo-1-[[(3S)-2-oxopyrrolidin-3-yl]methyl]propyl]carbamoyl]phenyl]-2-(trifluoromethyl)pyridine-4-carboxamide]	7.6 nM
